Structures are written as SMILES.

For series [1], the target named is T1, SHP-2 full-length protein (Homo sapiens, UniProt Q06124).
T1 construct: purchased BPS Bioscience 79330
T1 sequence (Q06124 1-593): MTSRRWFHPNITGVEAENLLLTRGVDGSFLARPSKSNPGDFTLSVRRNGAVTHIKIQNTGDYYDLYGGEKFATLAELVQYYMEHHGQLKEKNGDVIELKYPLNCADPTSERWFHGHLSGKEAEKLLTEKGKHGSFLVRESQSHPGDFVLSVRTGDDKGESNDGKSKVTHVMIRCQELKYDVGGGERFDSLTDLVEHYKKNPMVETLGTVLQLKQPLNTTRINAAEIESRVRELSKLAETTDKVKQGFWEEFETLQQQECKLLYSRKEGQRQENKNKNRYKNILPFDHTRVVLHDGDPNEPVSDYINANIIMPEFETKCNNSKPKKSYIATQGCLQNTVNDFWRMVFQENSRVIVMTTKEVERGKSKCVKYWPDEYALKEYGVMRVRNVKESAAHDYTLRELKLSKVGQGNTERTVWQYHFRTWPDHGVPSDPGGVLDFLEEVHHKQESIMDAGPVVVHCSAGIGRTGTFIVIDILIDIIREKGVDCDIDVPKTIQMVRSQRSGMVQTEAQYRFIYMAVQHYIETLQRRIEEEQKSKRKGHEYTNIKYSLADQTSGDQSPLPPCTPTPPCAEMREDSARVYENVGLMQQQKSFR
In words: Inhibition of SHP-2 kinase activity (Homogeneous Full Length SHP-2 Assay Kit). Type of series: biochemical. The conditions noted are these: relative IC50, full-length SHP-2 with activating peptide. Here is the method: The objective of this test is to determine the inhibitory effect of the compounds on SHP-2 full-length protein allosteric activity.
Experimental method: Homogeneous Full Length SHP-2 Assay Kit (BPS Bioscience, #79330) was used to determine the in vitro SHP-2 activity. First, 18 μL of Master Mix was added to a 96-well low adsorption microplate (NUNC, #267342), i.e., the reaction buffer with a final concentration of 1× comprised 0.5 μM SHP-2 activating Peptide and 5 mM DTT. After centrifugation, 5 μL of test compound/DMSO was added to each well (the final DMSO content was 1%, V/V, the test compound was dissolved in DMSO to 1 mM, a three-fold serial dilution was carried out to obtain ten concentrations, the final concentration of the reaction system ranged from 1 μM to 0.05 nM). SHP-2 was diluted in the 1× reaction buffer to a final concentration of 0.06 nM, and the resulting solution was added to the reaction microplate (2 μL per well). Full activity control (compound only with DMSO) and full inhibition control (no SHP-2) were set up on the reaction plate. After centrifugation, the reaction mixture was incubated at room temperature for 60 minutes.
After completion of the incubation, 25 μL of Substrate solution, which comprised Substrate with a final concentration of 10 μM and 5 mM DTT, was added to each well. After centrifugation, the reaction mixture was incubated at room temperature for 30 minutes. After completion of the reaction, readings were measured on the Synergy H1 full-function microplate reader (BioTek) (excitation wavelength: 340 nm, emission wavelength: […], gain value: 75).
The IC50 value of the test compounds was calculated by fitting the percentage inhibition rate and data of ten concentrations to a four-parameter nonlinear logic formula with GraphPad prism.

Series [2] concerns NCI-H358 cells. The series can be described thus: Proliferation inhibition of NCI-H358 cells (CellTiter-Glo). The series is classed as cell-based. The conditions noted are these: Homo sapiens, NCI-H358, 72 h; 3 days incubation. How it is done:
Experimental method: 3000 cells (90 μL of cell suspension) were inoculated to each well of a 96-well cell culture plate (Corning, #3610). The culture plate was incubated in an incubator overnight (37° C., 5% CO2). On the next day, 10 μL of gradient dilutions of the test compound solution (the final DMSO content was 0.2%, V/V, the final concentration of the reaction system ranged from 10 μM to 4.5 nM) was added to each well of the culture plate. At the same time, full activity control (compound only with DMSO) and full inhibition control (no cells) were set up on the reaction plate. The culture plate was incubated in the incubator for 3 days (37° C., 5% CO2).
After completion of the incubation, 50 μL of CellTiter-Glo reagent was added to each well of the cell culture plate, which was left to stand at room temperature for 10 minutes. The chemiluminescence signal value was measured in the Synergy H1 full-function microplate reader (BioTek). […] The IC50 value of the test compounds was calculated by fitting the percentage inhibition rate and data of eight concentrations to a four-parameter nonlinear logic formula with GraphPad prism.
The IC50 value was calculated by fitting the data of different concentrations and corresponding percentage inhibition rates to a four-parameter nonlinear logic formula with GraphPad prism.
For orientation: Cellular ATP, detected with luciferase, serves as a proxy for viable cell number.

In series [3] the test system is human pancreatic cancer cell MiaPaca 2 xenograft. The series can be described thus: Tumor inhibition test on MiaPaca 2 xenograft model. The series is classed as in vivo, Balb/c nude mice. The settings on record: 6 mg/kg QD × 3 w, intragastric. Here is the method:
Balb/c nude mice were used as test animals. In vivo pharmacodynamic test was carried out on human pancreatic cancer cell MiaPaca 2 xenograft (CDX) model to evaluate the anti-tumor effect of the test compounds.
MiaPaca 2 cells were taken from the cell bank and thawed. The cells were added to the DMEM medium (containing 10% FBS, 1% Glu and 1% P/S), and incubated in the CO2 incubator (the temperature of the incubator was 37° C., and the CO2 concentration was 5%). After the cells covered 80-90% of the bottom of the culture flask, the cells were passaged. After passage, the cells continued to be incubated in the CO2 incubator. The process was repeated until the number of cells met the inoculation requirement of the in vivo pharmacodynamic test. The cells in logarithmic growth phase were collected, and counted by the automatic cell counter. According to the counting results, the cells were resuspended with PBS and Matrigel (volume ratio: 1:1) to obtain a cell suspension (density: 8×10^7/ml), which was placed in an ice box for later use.
Female Balb/c nude mice (6-8 weeks old, body weight: about 18-22 grams) were used as test animals. The mice were maintained in an environment free of special pathogens and in a single ventilated cage (five mice per cage). All cages, bedding and water were disinfected before use. All animals had free access to standard certified commercial laboratory animal diets. The nude mice were marked with a disposable universal ear tag for rats and mice before the test. The skin of the inoculation site was disinfected with 75% medical alcohol before the inoculation. Each mouse was inoculated with 0.1 ml of MiaPaca 2 tumor cells (containing 8*10^6 cells) subcutaneously on the right back. When the average tumor volume reached 100 to 200 mm^3, administration was carried out. The test compounds were administered intragastrically daily. The tumor volume (mm^3) was measured with the vernier caliper twice a week. The tumor volume calculation formula: V=0.5*D*d*d, wherein D and d represent the long diameter and short diameter of the tumor, respectively. The anti-tumor efficacy was determined by dividing the average tumor increase volume of the compound-treated animals by the average tumor increase volume of the untreated animals. Tumor growth inhibition rate calculation formula: […]
All animals were euthanized after the experiment.

In series [4] the target is T2, hERG potassium channel (Homo sapiens, UniProt Q12809).
T2 construct: expressed in transfected cells; host or cells: CHO-hERG cells
The series can be described thus: Inhibitory activity on hERG potassium channel (Qpatch, CHO-hERG cells). Type of series: cell-based. The conditions noted are these: six concentrations up to 40 μM, read-out: hERG (inhibitory effect on hERG current). Here is the method: 8.1.1 CHO-hERG cells were cultured in a 175 cm^2 culture flask. When the cells were grown to a density of 60 to 80%, the culture solution was removed, and the cells were washed once with 7 mL of PBS, and then 3 mL of Detachin was added for digestion of the cells.
8.1.2 After the digestion was complete, the cells were neutralized by adding 7 mL of the culture solution and then centrifuged. The supernatant was removed, and then 5 mL of the culture solution was added for resuspension to ensure a cell density of 2-5×10^6 cells/mL.
The single-cell high-impedance sealing and whole-cell pattern formation processes were both completed automatically by the Qpatch instrument. After the whole-cell recording pattern was obtained, the cells were clamped at −80 millivolts. A pre-voltage of −50 millivolts was applied for 50 milliseconds prior to the application of a depolarizing stimulus of +40 millivolts for 5 seconds, and then the cells were repolarized to −50 millivolts and maintained for 5 seconds, and then returned back to −80 millivolts. This voltage stimulation was applied every 15 seconds, and data were recorded for 2 minutes, and thereafter the extracellular fluid was administered and data were recorded for 5 minutes, and then the administration process was started. The compound was administered from the lowest test concentration, and 2.5 minutes were given for each test concentration. After all the concentrations of the compound were administered, […] Cisapride as a positive control compound was administered. At least three cells (n≥3) were tested for each concentration.
8.4.1 20 mM compound mother solution was diluted with the extracellular fluid. 5 μL of the 20 mM compound mother solution was diluted 500 times to 40 μM by adding 2495 μL of the extracellular fluid, and then 3-fold serial dilutions were performed sequentially in the extracellular fluid containing 0.2% DMSO to obtain a final concentration to be tested.
8.4.2 The highest test concentration was 40 μM, and there were six concentrations in total, i.e., 40, 13.33, 4.44, 1.48, 0.49, and […], respectively.
The experimental data were analyzed by XLFit software.
A general note: The hERG channel carries a current that helps repolarise heart muscle cells.

Series [5] is described as follows: Pharmacokinetics assay in mice, oral administration. Type of series: in vivo. The conditions noted are these: mouse; male Balb/c mice, oral 5 mg/kg, plasma. How it is done: Balb/c mice were used as test animals.
5 g of hydroxyethyl cellulose (HEC, CMC-Na, viscosity: 800-1200 Cps) was dissolved in 1000 mL of purified water, and 10 g of Tween80 was added. The solution was mixed well to form a clear solution. […] The solution was subjected to ultrasound for 10 minutes to obtain a colorless and clear solution with a concentration of 0.5 mg/mL.
After an overnight fast, male Balb/c mice were administrated orally with the test compounds at an administration dose of 5 mg/kg and an administration volume of 10 mL/kg.
Blood was taken before administration and at 0.25 hour, 0.5 hour, 1 hour, 2 hours, 4 hours, 6 hours, 8 hours and 24 hours after administration. The blood samples were stored in EDTA-2K tubes, and centrifuged for 6 minutes at 6000 rpm, at 4° C. to separate the blood plasma. The plasma samples were stored at −80° C. The mice were fed four hours after administration.

Series [6] in a line: Pharmacokinetics assay in rats, oral administration. The series is classed as in vivo. The settings on record: rat; male SD rats, oral 5 mg/kg, plasma. How it is done:
SD rats were used as test animals.
5 g of hydroxyethyl cellulose (HEC, CMC-Na, viscosity: 800-1200 Cps) was dissolved in 1000 mL of purified water, and 10 g of Tween80 was added. The solution was mixed well to form a clear solution.
The solution was shaked well and subjected to ultrasound for 15 minutes to obtain a colorless and clear solution with a concentration of 0.5 mg/mL.
After an overnight fast, male SD rats (3 rats per group) were administrated orally with the test compounds at an administration dose of 5 mg/kg and an administration volume of 10 mL/kg.
0.2 mL of blood was taken from jugular vein before administration and at 0.5 hour, 1.0 hour, 2.0 hours, 4.0 hours, 6.0 hours, 8.0 hours and 24.0 hours after administration. The blood samples were stored in EDTA-2K tubes, and centrifuged for 6 minutes at 6000 rpm, at 4° C. to separate the blood plasma. The plasma samples were stored at −80° C. The rats were fed four hours after administration.

T2 sequence (Q12809 whole entry): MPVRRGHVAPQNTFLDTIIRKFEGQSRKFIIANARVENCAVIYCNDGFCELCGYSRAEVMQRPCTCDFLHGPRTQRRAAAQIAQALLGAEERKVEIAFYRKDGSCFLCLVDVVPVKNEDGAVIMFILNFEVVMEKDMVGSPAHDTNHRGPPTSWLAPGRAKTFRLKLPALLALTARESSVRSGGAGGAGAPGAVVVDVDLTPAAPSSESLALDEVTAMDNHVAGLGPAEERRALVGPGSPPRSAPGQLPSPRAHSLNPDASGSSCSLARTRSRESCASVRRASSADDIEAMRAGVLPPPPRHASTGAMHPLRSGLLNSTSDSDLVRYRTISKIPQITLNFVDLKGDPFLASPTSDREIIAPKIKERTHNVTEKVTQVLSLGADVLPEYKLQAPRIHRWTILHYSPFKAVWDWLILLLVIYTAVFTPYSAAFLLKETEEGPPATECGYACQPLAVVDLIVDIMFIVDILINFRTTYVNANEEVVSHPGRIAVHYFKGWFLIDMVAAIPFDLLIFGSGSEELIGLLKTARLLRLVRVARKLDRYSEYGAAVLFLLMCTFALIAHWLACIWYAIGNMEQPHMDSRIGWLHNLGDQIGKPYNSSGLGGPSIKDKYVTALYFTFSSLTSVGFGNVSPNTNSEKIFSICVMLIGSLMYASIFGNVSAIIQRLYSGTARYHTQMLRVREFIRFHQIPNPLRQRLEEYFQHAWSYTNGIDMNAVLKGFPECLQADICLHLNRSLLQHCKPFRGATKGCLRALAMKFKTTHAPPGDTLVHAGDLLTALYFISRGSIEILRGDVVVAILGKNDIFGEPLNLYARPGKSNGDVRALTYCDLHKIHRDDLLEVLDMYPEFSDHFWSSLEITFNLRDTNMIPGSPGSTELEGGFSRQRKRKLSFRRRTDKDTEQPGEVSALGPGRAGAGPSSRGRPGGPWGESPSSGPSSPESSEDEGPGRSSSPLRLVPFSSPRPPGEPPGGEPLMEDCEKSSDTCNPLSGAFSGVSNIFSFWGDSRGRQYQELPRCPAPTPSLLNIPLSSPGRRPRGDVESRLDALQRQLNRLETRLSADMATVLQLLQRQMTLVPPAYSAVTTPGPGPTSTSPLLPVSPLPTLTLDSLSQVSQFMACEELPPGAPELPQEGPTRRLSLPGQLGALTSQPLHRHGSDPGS

On to `Cc1nc(Sc2ccnc(N)c2Cl)c(N)nc1N1CCC2(CC1)Cc1ccccc1[C@H]2N` [Example 96, (S)-1′-(6-amino-5-((2-amino-3-chloropyridin-4-yl)thio)-3-methylpyrazin-2-yl)-1,3-dihydrospiro[indene-2,4′-piperidin]-1-amine], for which the IC50 in series [1] amounted to 9.28 nM. Further, the IC50 in series [2] stood at 13.4 nM. Also, in series [3], the “Tumor volume (Mean ± SD) Day 0” value is given as 170 ± 28 (171 ± 25) mm^3, the “TGI Day 21” value stood at 97.76%, the “Tumor volume (Mean ± SD) Day 21” value was found to be 183 ± 70 mm^3 and the “ΔT/ΔC Day 21” value was 2.24%. For the same compound, the IC50 in series [4] worked out at 5240 nM.
One may read the AUC(0-inf) as the area under the concentration-time curve extrapolated to infinity. For orientation: Cmax means the maximum level reached in the sampled fluid or tissue. One may read the MRT as a mean duration of stay, worked out from the concentration-time curve. In general, Tmax refers to the time at which the peak concentration occurs. By half-life is commonly meant how long it takes for the measured level to halve. The low end stands for rapid decline, the high end for slow decline. As for `Nc1nc(N2CCC3(CC2)Cc2ncccc2[C@H]3N)c(F)nc1Sc1ccnc(N)c1Cl` [Example 180, (S)-1′-(6-Amino-5-((2-amino-3-chloropyridin-4-yl)thio)-3-fluoropyrazin-2-yl)-5,7-dihydrospiro[cyclopenta[b]pyridine-6,4′-piperidin]-5-amine], the IC50 in series [1] came out at 9.29 nM. The IC50 in series [2] amounted to 79.9 nM. Also, in series [5], the AUC(0-inf) worked out at 5980 ng·h/mL, the concentration peaked (Cmax) at 996 ng/mL, the MRT turned out to be 5.15 h and the Tmax was found to be 0.5 h. Moreover, in series [5], the half-life is 3.92 h. Besides, in series [6], the AUC(0-inf) came out at 6250 ng·h/mL, the peak level (Cmax) was 666 ng/mL, the MRT was 5.67 h and the Tmax worked out at 1 h. In series [6], this compound gave a half-life of 4.12 h.
As to `Nc1nc(N2CCC3(CC=C(C4CC4)[C@H]3N)CC2)cnc1Sc1ccnc(N)c1Cl` [Example 143, (S)-8-(6-amino-5-((2-amino-3-chloropyridin-4-yl)thio)pyrazin-2-yl)-2-cyclopropyl-8-azaspiro[4.5]dec-2-en-1-amine], the IC50 in series [1] was 3.8 nM. Moreover, in series [2], the IC50 stood at 23.3 nM. For the same compound, in series [3], the “Tumor volume (Mean ± SD) Day 0” value is 166 ± 27 (168 ± 32) mm^3, the “TGI Day 21” value turned out to be 95.64%, the “Tumor volume (Mean ± SD) Day 21” value is given as 196 ± 62 mm^3 and the “ΔT/ΔC Day 21” value was 4.36%. For the same compound, the IC50 in series [4] was 6170 nM.
